What follows are compounds tested on IL-1β production in PMA-differentiated THP-1 cells (assay: IL-1β production in PMA-differentiated THP-1 cells stimulated with gramicidin (hTHP-1 assay, 2% fetal bovine serum; Procedures 1-3)). Conditions: Homo sapiens, THP-1, Table B3; hTHP-1 assay containing 2% fetal bovine serum, gramicidin stimulation, IL-1β readout; read-out: hTHP-1 IC50.
Format: cell-based, human
Method in brief: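 PMA-primed THP-1 cells (20 ng/ml PMA, 16-18 h) in RPMI with 2% FBS were pre-incubated with compounds for 1 h, from 100 μM downward in 3-fold steps (0.37% DMSO final), then stimulated with 5 μM gramicidin for 2 h. IL-1β in the supernatant was quantified by HTRF.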

Row | Structure (SMILES) | IC50 [µM]
1 | CN1CCCC(c2ccc(S(N)(=O)=NC(=O)Nc3c4c(cc5c3CC5)CCC4)c(F)c2)C1 (single isomer, unassigned) [Example 862, (R, R) or (S, R)-2-fluoro-4-(1-methylpiperidin-3-yl)-N′-((2,4,5,6-tetrahydro-1H-cyclobuta[f]inden-3-yl)carbamoyl)benzenesulfonimidamide] | 1 to 5

Same assay, conditions: Table B3; hTHP-1 assay containing 2% fetal bovine serum, gramicidin stimulation, IL-1β readout; read-out: hTHP-1 IC50

Row | Structure (SMILES) | IC50 [µM]
2 | NS(=O)(=NC(=O)Nc1c2c(cc3c1CC3)CCC2)c1sc(CN2CCC2)cc1F (single isomer, unassigned) [Example 844, (S) or (R)-5-(azetidin-1-ylmethyl)-3-fluoro-N′-((2,4,5,6-tetrahydro-1H-cyclobuta[f]inden-3-yl)carbamoyl)thiophene-2-sulfonimidamide] | 1 to 5
3 | CC(NC1CCC1)c1ccc(S(N)(=O)=NC(=O)Nc2c3c(cc4c2CC4)CCC3)c(F)c1 (single isomer, unassigned) [Example 845, (R/S, R)-4-(1-(cyclobutylamino)ethyl)-2-fluoro-N′-((2,4,5,6-tetrahydro-1H-cyclobuta[f]inden-3-yl)carbamoyl)benzenesulfonimidamide] | 0.2 to 1
4 | CC(NC1CCC1)c1ccc(S(N)(=O)=NC(=O)Nc2c3c(cc4c2CC4)CCC3)c(F)c1 (single isomer, unassigned) [Example 847, (R, R) or (S, R) -4-(1-(cyclobutylamino)ethyl)-2-fluoro-N′-((2,4,5,6-tetrahydro-1H-cyclobuta[f]inden-3-yl)carbamoyl)benzenesulfonimidamide] | 0.2 to 1
5 | CC(NC1CCC1)c1ccc(S(N)(=O)=NC(=O)Nc2c3c(cc4c2CC4)CCC3)c(F)c1 (single isomer, unassigned) [Example 848, (S, R) or (R, R) -4-(1-(cyclobutylamino)ethyl)-2-fluoro-N′-((2,4,5,6-tetrahydro-1H-cyclobula[f]inden-3-yl)carbamoyl)benzenesulfonimidamide] | 0.2 to 1
6 | CC(NC1CCC1)c1ccc(S(N)(=O)=NC(=O)Nc2c3c(cc4c2CC4)CCC3)c(F)c1 (single isomer, unassigned) [Example 849, (S, S) or (R, S) -4-(1-(cyclobutylamino)ethyl)-2-fluoro-N′-((2,4,5,6-tetrahydro-1H-cyclobuta[f]inden-3-yl)carbamoyl)benzenesulfonimidamide] | 5 to 30
7 | CC(NC1CCC1)c1ccc(S(N)(=O)=NC(=O)Nc2c3c(cc4c2CC4)CCC3)c(F)c1 (single isomer, unassigned) [Example 850, (R, S) or (S, S) -4-(1-(cyclobutylamino)ethyl)-2-fluoro-N′-((2,4,5,6-tetrahydro-1H-cyclobuta[f]inden-3-yl)carbamoyl)benzenesulfonimidamide] | 5 to 30
8 | COC1CCc2c(csc2S(N)(=O)=NC(=O)Nc2c3c(cc4c2CCC4)CCC3)C1 (single isomer, unassigned) [Example 851, (R, R) or (S, R)-N′-((1,2,3,5,6,7-hexahydro-s-indacen-4-yl)carbamoyl)-5-methoxy-4,5,6,7-tetrahydrobenzo[c]thiophene-1-sulfonimidamide] | 0.2 to 1
9 | COC1CCc2c(csc2S(N)(=O)=NC(=O)Nc2c3c(cc4c2CCC4)CCC3)C1 (single isomer, unassigned) [Example 852, (S, R) or (R, R)-N′-((1,2,3,5,6,7-hexahydro-s-indacen-4-yl)carbamoyl)-5-methoxy-4,5,6,7-tetrahydrobenzo[c]thiophene-1-sulfonimidamide] | 1 to 5
10 | COC1CCc2c(csc2S(N)(=O)=NC(=O)Nc2c3c(cc4c2CCC4)CCC3)C1 (single isomer, unassigned) [Example 853, (R, S) or (S, S)-N′-((1,2,3,5,6,7-hexahydro-s-indacen-4-yl)carbamoyl)-5-methoxy-4,5,6,7-tetrahydrobenzo[c]thiophene-1-sulfonimidamide] | > 30
11 | COC1CCc2c(csc2S(N)(=O)=NC(=O)Nc2c3c(cc4c2CCC4)CCC3)C1 (single isomer, unassigned) [Example 854, (S, S) or (R, S)-N′-((1,2,3,5,6,7-hexahydro-s-indacen-4-yl)carbamoyl)-5-methoxy-4,5,6,7-tetrahydrobenzo[c]thiophene-1-sulfonimidamide] | 5 to 30
12 | COC1CCc2csc(S(N)(=O)=NC(=O)Nc3c4c(cc5c3CCC5)CCC4)c2C1 (single isomer, unassigned) [Example 855, (R, S) or (S, S)-N′-((1,2,3,5,6,7-hexahydro-s-indacen-4-yl)carbamoyl)-6-methoxy-4,5,6,7-tetrahydrobenzo[c]thiophene-1-sulfonimidamide] | > 30
13 | COC1CCc2csc(S(N)(=O)=NC(=O)Nc3c4c(cc5c3CCC5)CCC4)c2C1 (single isomer, unassigned) [Example 856, (S, S) or (R, S)-N′-((1,2,3,5,6,7-hexahydro-s-indacen-4-yl)carbamoyl)-6-methoxy-4,5,6,7-tetrahydrobenzo[c]thiophene-1-sulfonimidamide] | > 30
14 | COC1CCc2csc(S(N)(=O)=NC(=O)Nc3c4c(cc5c3CCC5)CCC4)c2C1 (single isomer, unassigned) [Example 857, (R, R) or (S, R)-N′-((1,2,3,5,6,7-hexahydro-s-indacen-4-yl)carbamoyl)-6-methoxy-4,5,6,7-tetrahydrobenzo[c]thiophene-1-sulfonimidamide] | 1 to 5
15 | COC1CCc2csc(S(N)(=O)=NC(=O)Nc3c4c(cc5c3CCC5)CCC4)c2C1 (single isomer, unassigned) [Example 858, (S, R) or (R, R)-N′-((1,2,3,5,6,7-hexahydro-s-indacen-4-yl)carbamoyl)-6-methoxy-4,5,6,7-tetrahydrobenzo[c]thiophene-1-sulfonimidamide] | 5 to 30
16 | CN1CCCC(c2ccc(S(N)(=O)=NC(=O)Nc3c4c(cc5c3CC5)CCC4)c(F)c2)C1 (single isomer, unassigned) [Example 859, (S, R) or (R, R)-2-fluoro-4-(1-methylpiperidin-3-yl)-N′-((2,4,5,6-tetrahydro-1H-cyclobuta[f]inden-3-yl)carbamoyl)benzenesulfonimidamide] | 1 to 5
17 | CN1CCCC(c2ccc(S(N)(=O)=NC(=O)Nc3c4c(cc5c3CC5)CCC4)c(F)c2)C1 (single isomer, unassigned) [Example 860, (R, S) or (S, S)-2-fluoro-4-(1-methylpiperidin-3-yl)-N′-((2,4,5,6-tetrahydro-1H-cyclobuta[f]inden-3-yl)carbamoyl)benzenesulfonimidamide] | > 30
18 | CN1CCCC(c2ccc(S(N)(=O)=NC(=O)Nc3c4c(cc5c3CC5)CCC4)c(F)c2)C1 (single isomer, unassigned) [Example 861, (S, S) or (R, S)-2-fluoro-4-(1-methylpiperidin-3-yl)-N′-((2,4,5,6-tetrahydro-1H-cyclobuta[f]inden-3-yl)carbamoyl)benzenesulfonimidamide] | > 30
19 | NS(=O)(=NC(=O)Nc1c2c(cc3c1CCC3)CCC2)c1ccc(C2CCN2)cc1 (single isomer, unassigned) [Example 864, (R, S) or (S, S)-4-(azetidin-2-yl)-N′-((1,2,3,5,6,7-hexahydro-5-indacen-4-yl)carbamoyl)benzenesulfonimidamide] | 5 to 30

From patent US20230051589A1, “COMPOUNDS AND COMPOSITIONS FOR TREATING CONDITIONS ASSOCIATED WITH NLRP ACTIVITY” (Novartis AG, priority 2018, published 2023)
